These results are taken from US8569247B2 (priority 2009, dated 2013).

In data set [1] the test system is CaCo-2 cells. Put plainly: Cellular uptake of crocin and crocetin in CaCo-2 cells (cellular content). The class given is in vitro ADME. The conditions noted are these: for HPLC peaks in the cells: 10 mg Gardenia extract/100 mL medium; for Crocetin (HPLC) concentration in the cells: 10 mg crocetin/100 mL medium. The protocol: (§1) CaCo-2 cells were incubated with 10 mg Gardenia extract and 10 mg crocetin/100 mL medium. The test compounds were dissolved in methanol and then diluted with incubation medium. Incubations were performed at 37° C. for 30, 60 and 120 minutes.
Cells were grown in 75 cm^2 culture-flasks (T75) and sub-cultured after one week (every other day washed with PBS buffer, removed with trypsin and transferred to a new culture flask).
The cells were washed with PBS buffer, incubated with 4 ml medium containing the suspended samples for 30, 60 or 120 minutes.
After the corresponding incubation time, the cells were washed with PBS buffer/MeOH=70/30 and removed using 1 ml of MeOH. Cells were sonicated 3 times for 30 seconds, centrifuged for 10 min and the pellets were discarded. The supernatant was used as sample for HPLC and UV/VIS-analysis.
(§2) An appropriate amount of standard was transferred into a 10 mL flask and dissolved in 3 mL methanol and filled to the mark with water. Dilutions were prepared in mobile phase.
(§3) Quantification was performed by external standardization after linear regression analysis.

A short description of data set [2]: Content of test solution before and after incubation (stability under CaCo-2 test conditions). The data set is classed as in vitro ADME. The conditions noted are these: for Area-% Fingerprint of test solution after 120 minutes / Area-% Fingerprint of test solution prior to incubation: Gardenia extract test solution. The protocol: as §1
The content of crocetin related esters and crocetin in the sample used for incubation testing was determined.
Table 7 provides the content of test solution prior to incubation:
Table 8 provides the corresponding data for the test solution obtained after 120 minutes.
as §2, §3

In data set [3] the test system is CaCo-2 cells. Kind of data set: CaCo-2 uptake trial extended with gardenia hydrolysate (%-uptake by HPLC/UV peak areas). The data set is classed as in vitro ADME. The conditions noted are these: sample 20 mg/100 ml; proportion on overall absorption.
Procedure: The tests were performed in replicate and the results are expressed as %-uptake based on peak areas measured by HPLC/UV.
Data set [4] has as its target human acetylcholinesterase (Homo sapiens, UniProt P22303). Kind of data set: biochemical. The class given is biochemical. The following applies: for inhibition at 500 µg/mL: read-out: Inhibition of AChE activity %; for activity at 500 µg/mL: read-out: AChE activity %. The protocol: Inhibitor solution: 10 mg of the corresponding samples were respectively dissolved in 1 ml methanol.
Chromogen solution: 0.1 M Sodium phosphate buffer (pH=8, NaOH) was mixed with solution A at a ratio of 30:1.
Solution A: 39.6 mg 5,5′-dithio-bis[2-nitrobenzoic acid] and 15.0 mg NaHCO3 were weighed into a 10 ml flask and filled to the mark with 0.1 M Sodium-phosphate buffer (pH=7, NaOH).
Enzyme solution: A solution of human acetylcholinesterase containing 70 IU enzyme activity/ml H2O was prepared.
Substrate solution: 115.7 mg acetylthiocholine-iodide was weighed into a 10 ml flask and filled to the mark with H2O.
10 μl inhibitor solution was mixed with 185 μl chromogen solution and 10 μl enzyme solution. The solution was incubated for 10 minutes at room temperature with shaking. […] substrate solution was added and the increase in absorption at 412 nm was recorded until no more increase was observed (3-5 minutes).

The conditions of data set [5]: stated as known property; cited from earlier work.
Data set [6] in a line: Solubility in water / aqueous alkaline solution. The data set is classed as physicochemical. The conditions noted are these: found by the applicant.
The mark [7] stands for this setting: after 120 minutes incubation at 37° C.
The mark [8] stands for this setting: sample 0.50 mg/ml, Neg Control = 0.0.
Where [9] appears, read: sample 0.50 mg/ml, Neg Control = 100.0.

Where two headings read alike, the source gives them in different places.

human acetylcholinesterase, sequence (P22303 32-614): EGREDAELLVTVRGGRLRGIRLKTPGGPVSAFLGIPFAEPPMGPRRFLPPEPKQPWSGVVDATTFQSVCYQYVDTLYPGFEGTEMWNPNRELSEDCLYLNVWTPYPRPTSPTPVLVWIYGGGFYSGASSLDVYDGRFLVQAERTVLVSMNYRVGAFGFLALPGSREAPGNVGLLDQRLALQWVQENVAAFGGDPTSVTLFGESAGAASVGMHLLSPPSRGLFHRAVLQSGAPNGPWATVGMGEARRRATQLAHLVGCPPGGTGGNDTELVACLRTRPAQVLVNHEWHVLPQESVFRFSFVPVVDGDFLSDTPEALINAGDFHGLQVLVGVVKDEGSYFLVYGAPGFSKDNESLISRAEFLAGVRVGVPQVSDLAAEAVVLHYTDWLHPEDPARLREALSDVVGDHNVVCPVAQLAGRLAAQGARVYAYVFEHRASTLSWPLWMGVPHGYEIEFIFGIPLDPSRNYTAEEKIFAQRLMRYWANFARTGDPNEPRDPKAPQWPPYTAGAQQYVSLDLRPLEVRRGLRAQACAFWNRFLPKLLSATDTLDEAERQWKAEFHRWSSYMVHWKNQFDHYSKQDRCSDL

For the compound `CC(=C/C=C/C=C(C)/C=C/C=C(/C)C(=O)O[C@@H]1O[C@H](CO[C@@H]2O[C@H](CO)[C@@H](O)[C@H](O)[C@H]2O)[C@@H](O)[C@H](O)[C@H]1O)/C=C/C=C(\C)C(=O)O[C@@H]1O[C@H](CO[C@@H]2O[C@H](CO)[C@@H](O)[C@H](O)[C@H]2O)[C@@H](O)[C@H](O)[C@H]1O` (relative stereo) [DGCC, digentobiosyl-(cis)crocetin], the “HPLC peaks in the cells” value with CaCo-2 cells [1] (time 0 min), in the data set on CaCo-2 cells [1] (time 30 min), in the data set on CaCo-2 cells [1] (time 60 min) and in the data set with CaCo-2 cells [1] (time 120 min) was “not detected” in each case. In addition, the “Area-% Fingerprint of test solution after 120 minutes” value in data set [2] (setting [7]) came out at 15.2 Area-%. Further, the “Area-% Fingerprint of test solution prior to incubation” value (shortened to “Area-% Fingerprint … to incubation”) in data set [2] (prior to incubation) was found to be 16.6 Area-%.
For the compound `CC(/C=C/C=C(\C)C(=O)O[C@@H]1O[C@H](CO[C@@H]2O[C@H](CO)[C@@H](O)[C@H](O)[C@H]2O)[C@@H](O)[C@H](O)[C@H]1O)=C\C=C\C=C(C)\C=C\C=C(/C)C(=O)O[C@@H]1O[C@H](CO[C@@H]2O[C@H](CO)[C@@H](O)[C@H](O)[C@H]2O)[C@@H](O)[C@H](O)[C@H]1O` (relative stereo) [DGTC, digentobiosyl-(trans)crocetin], the “HPLC peaks in the cells” value with CaCo-2 cells [1] (time 0 min), with CaCo-2 cells [1] (time 30 min), in the data set on CaCo-2 cells [1] (time 60 min) and in the data set with CaCo-2 cells [1] (time 120 min) was “not detected” each time. Moreover, in data set [2] (setting [7]), the “Area-% Fingerprint of test solution after 120 minutes” value worked out at 43.4 Area-%. The “Area-% Fingerprint … to incubation” value in data set [2] (prior to incubation) worked out at 45.3 Area-%.
As to `CC(/C=C/C=C(\C)C(=O)O)=C\C=C\C=C(C)\C=C\C=C(/C)C(=O)O[C@@H]1O[C@H](CO[C@@H]2O[C@H](CO)[C@@H](O)[C@H](O)[C@H]2O)[C@@H](O)[C@H](O)[C@H]1O` (relative stereo) [GTC, gentobisyl-(trans)crocetin], the “HPLC peaks in the cells” value in the data set on CaCo-2 cells [1] (time 0 min), in the data set with CaCo-2 cells [1] (time 30 min), in the data set with CaCo-2 cells [1] (time 60 min) and in the data set with CaCo-2 cells [1] (time 120 min) was “not detected” each time. For the same compound, the “Area-% Fingerprint of test solution after 120 minutes” value in data set [2] (setting [7]) was found to be 10.3 Area-%. In addition, the “Area-% Fingerprint … to incubation” value in data set [2] (prior to incubation) turned out to be 9.7 Area-%.
As for `CC(/C=C/C=C(\C)C(=O)O)=C\C=C\C=C(C)\C=C\C=C(/C)C(=O)O` [Crocetin, 8,8′-Diapo-ψ,ψ-carotenedioic acid, reference compound], the “Crocetin (HPLC) concentration in the cells” value with CaCo-2 cells [1] (time 0 min), in the data set with CaCo-2 cells [1] (time 30 min), in the data set with CaCo-2 cells [1] (time 60 min) and in the data set with CaCo-2 cells [1] (time 120 min) was “BLD (BLD = <0.01 mg/100 ml)” each time. Besides, the “content of test solution after 120 minutes” value in data set [2] (setting [7]) came to 9.77 mg/100 ml. Further, the “content of test solution prior to incubation” value in data set [2] (prior to incubation, incubation medium) was found to be 9.82 mg/100 ml. For the same compound, the “% uptake of crocetin” value with CaCo-2 cells [3] stood at 0.53%. The inhibition at 500 µg/mL in data set [4] (setting [8]) worked out at 7.5%. For the same compound, the activity at 500 µg/mL in data set [4] (setting [9]) is 92.5%. Further, the “solubility in aqueous alkaline solution” value in data set [5] is given as “soluble”. In addition, the solubility in water entry in data set [5] is reported as “insoluble in water”.
On to `CC(/C=C/C=C(\C)C(=O)O[C@@H]1O[C@H](CO[C@@H]2O[C@H](CO)[C@@H](O)[C@H](O)[C@H]2O)[C@@H](O)[C@H](O)[C@H]1O)=C\C=C\C=C(C)\C=C\C=C(/C)C(=O)O[C@@H]1O[C@H](CO[C@@H]2O[C@H](CO)[C@@H](O)[C@H](O)[C@H]2O)[C@@H](O)[C@H](O)[C@H]1O` [Crocin, di-gentiobiose ester of crocetin], for which, in data set [4], the activity at 500 µg/mL was determined as 52.7% and the inhibition at 500 µg/mL stood at 47.3%. For the same compound, the solubility in water entry in data set [5] is reported as “very good water-solubility”.
`CCOC(=O)CCC(=O)O` [Monoester]: the solubility in water entry in data set [6] is “good solubility in water”. For the same compound, the “Inhibition of AChE activity %” value in data set [4] (setting [8]) is recorded as 89.2%. Further, the AChE activity % in data set [4] (setting [9]) amounted to 10.8%.
“neapolitanosyl-glucosyl-(trans)crocetin [NGTC]”: the “HPLC peaks in the cells” value in the data set on CaCo-2 cells [1] (time 0 min), in the data set on CaCo-2 cells [1] (time 30 min), in the data set with CaCo-2 cells [1] (time 60 min) and in the data set on CaCo-2 cells [1] (time 120 min) was “not detected” each time. Moreover, the “Area-% Fingerprint of test solution after 120 minutes” value in data set [2] (setting [7]) is 17.9 Area-%. Moreover, the “Area-% Fingerprint … to incubation” value in data set [2] (prior to incubation) is 18.1 Area-%.
